The target in one experiment is human GPR40 (Homo sapiens (Human), UniProt O14842). As to the kind of experiment: GPR40 Calcium Flux Assay. In kind it is cell-based. The following applies: transfected HEK293 cells stably expressing human GPR40; Ca2+ mobilization; mean data; read-out: hGPR40 Ca^2+ Assay EC50.
Sequence of human GPR40 (O14842 whole entry): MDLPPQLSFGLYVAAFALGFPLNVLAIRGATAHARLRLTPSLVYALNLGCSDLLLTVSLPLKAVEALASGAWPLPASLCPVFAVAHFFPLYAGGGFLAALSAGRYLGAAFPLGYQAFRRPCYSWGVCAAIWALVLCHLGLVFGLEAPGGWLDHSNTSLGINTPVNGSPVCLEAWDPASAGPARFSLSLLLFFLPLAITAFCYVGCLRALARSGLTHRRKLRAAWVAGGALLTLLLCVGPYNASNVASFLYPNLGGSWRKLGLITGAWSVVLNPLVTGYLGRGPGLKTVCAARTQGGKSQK
The term EC50 denotes the concentration giving half of the maximal effect. For `CC#C[C@@H](CC(=O)O)c1ccc(OCc2ccc3scc(-c4ccccc4C)c3c2)cc1` [Cpd 2, (3S)-3-[4-[[3-(2-Methylphenyl)benzo[b]thiophen-5-yl]methoxy]phenyl]hex-4-ynoic acid], the EC50 was determined as 5 nM.
Still for that read-out and setting: for `CC#C[C@@H](CC(=O)O)c1ccc(OCc2ccc3scc(-c4ccc(OCCOC)cc4C)c3c2)cc1` [Cpd 16, (3S)-3-(4-((3-(4-(2-Methoxyethoxy)-2-methylphenyl)benzo[b]thiophen-5-yl)methoxy)phenyl)hex-4-ynoic acid] the value was 5 nM.
On the same count and under the same terms, for `CC#C[C@@H](CC(=O)O)c1ccc(COc2ccc3scc(-c4ccc(OC5CCOC5)cc4C)c3c2)cc1` (stereo partly drawn) [Cpd 86, (3S)-3-[4-[([3-[2-Methyl-4-(tetrahydrofuran-3-yloxy)phenyl]-1-benzothiophen-5-yl]oxy)methyl]phenyl]hex-4-ynoic acid] the value was 8 nM; for `CC#C[C@@H](CC(=O)O)c1ccc(OCc2ccc3scc(-c4cc(OCCOC)ccc4C)c3c2)nc1` [Cpd 87, (3R)-3-(6-((3-(5-(2-Methoxyethoxy)-2-methylphenyl)benzo[b]thiophen-5-yl)methoxy)pyridin-3-yl)hex-4-ynoic acid], 11 nM.
Same read-out and setting: the result for `CC#C[C@@H](CC(=O)O)c1ccc(OCc2ccc3scc(-c4cccc(OCCOC)c4C)c3c2)nc1` [Cpd 88, (3R)-3-(6-((3-(3-(2-Methoxyethoxy)-2-methylphenyl)benzo[b]thiophen-5-yl)methoxy)pyridin-3-yl)hex-4-ynoic acid] reads 8 nM; that for `CC#C[C@@H](CC(=O)O)c1ccc(OCc2ccc3scc(-c4ncc(OCCOC)cc4C)c3c2)nc1` [Cpd 89, (3R)-3-(6-((3-(5-(2-Methoxyethoxy)-3-methylpyridin-2-yl)benzo[b]thiophen-5-yl)methoxy)pyridin-3-yl)hex-4-ynoic acid], 20 nM; that for `CC#C[C@@H](CC(=O)O)c1ccc(OCc2ccc3scc(-c4cc(Cl)ncc4C)c3c2)nc1` [Cpd 90, (3R)-3-(6-((3-(2-Chloro-5-methylpyridin-4-yl)benzo[b]thiophen-5-yl)methoxy)pyridin-3-yl)hex-4-ynoic acid], 15 nM.
Take `CC#C[C@@H](CC(=O)O)c1ccc(OCc2ccc3scc(-c4ncccc4OC)c3c2)cc1` [Cpd 91, (3S)-3-(4-((3-(3-Methoxypyridin-2-yl)benzo[b]thiophen-5-yl)methoxy)phenyl)hex-4-ynoic acid]: the EC50 turned out to be 17 nM.
Still for that read-out and setting: for `CC#C[C@@H](CC(=O)O)c1ccc(OCc2ccc3scc(-c4cc(OCCOC)cnc4C)c3c2)nc1` [Cpd 92, (3R)-3-(6-((3-(5-(2-Methoxyethoxy)-2-methylpyridin-3-yl)benzo[b]thiophen-5-yl)methoxy)pyridine-3-yl)hex-4-ynoic acid] the value was 13 nM.
On to `CC#C[C@@H](CC(=O)O)c1ccc(OCc2ccc3scc(-c4nc(Cl)ccc4C)c3c2)cc1` [Cpd 93, (3S)-3-(4-((3-(6-Chloro-3-methylpyridin-2-yl)benzo[b]thiophen-5-yl)methoxy)phenyl)hex-4-ynoic acid], for which the EC50 was 15 nM.
Same read-out and setting: the result for `CC#C[C@@H](CC(=O)O)c1ccc(OCc2ccc3scc(-c4nc(OC)ccc4C)c3c2)cc1` [Cpd 94, (3S)-3-(4-((3-(6-Methoxy-3-methylpyridin-2-yl)benzo[b]thiophen-5-yl)methoxy)phenyl)hex-4-ynoic acid] reads 15 nM; that for `CC#C[C@@H](CC(=O)O)c1ccc(OCc2ccc3scc(-c4ccc(CC5CCNCC5)cc4C)c3c2)cc1` [Cpd 95, (3S)-3-(4-((3-(2-Methyl-4-(piperidin-4-ylmethyl)phenyl)benzo[b]-thiophen-5-yl)methoxy)phenyl)hex-4-ynoic acid], 4 nM.
The same measure, in the same setting: the result for `CC#C[C@@H](CC(=O)O)c1ccc(OCc2ccc3scc(-c4ccc(C5CCNCC5)cc4C)c3c2)cc1` [Cpd 96, (3S)-3-(4-((3-(2-Methyl-4-(piperidin-4-yl)phenyl)benzo[b]thiophen-5-yl)methoxy)phenyl)hex-4-ynoic acid] reads 8 nM.
The same measure, in the same setting: the result for `CC#CC(CC(=O)O)c1ccc(OCc2ccc3scc(-c4ccccc4C)c3c2)cc1` (centres unmarked) [Cpd 97, 3-(4-((3-(2-Methylphenyl)benzo[b]thiophen-5-yl)methoxy)phenyl)hex-4-ynoic acid] reads 2 nM; that for `CC#C[C@H](CC(=O)O)c1ccc(OCc2ccc3scc(-c4ccccc4C)c3c2)cc1` [Cpd 98, (3R)-3-[4-[[3-(2-Methylphenyl)benzo[b]thiophen-5-yl]methoxy]phenyl]hex-4-ynoic acid], 160 nM.

The next experiment concerns Male SD rats. As to the kind of experiment: Oral Glucose Tolerance Test. In kind it is in vivo, rat. Conditions: 10 mg/kg, thirty to forty min prior to oGTT (glucose, 2 g/kg, po), blood glucose AUC t=0 to t=120 minutes. Here is the method: Male SD rats (200-250 g) were housed 2 per cage in a temperature-controlled room with a 12-hour light/dark cycle. They were allowed ad libitum access to water and fed with normal rodent chow. The night before the oral glucose tolerance test (oGTT), the rats were transferred to clean cages and fasted overnight. On the morning of the oGTT, the rats were weighed and randomized into groups based on fasted blood glucose and body weight. Rats were dosed with vehicle (0.5% methocel) or compounds (10 mg/kg, po) thirty to forty min prior to the oGTT (glucose, 2 g/kg, po). Blood was collected from the tail vein at 0, 10, 30, 60 and 120 minutes after glucose challenge to measure blood glucose; plasma was used to determine insulin levels. The area under the curve for blood glucose excursion was calculated from t=0 to t=120 minutes. Percent lowering of glucose was calculated from the AUC data with respect to the vehicle-treated group.
As for `CC#C[C@@H](CC(=O)O)c1ccc(OCc2ccc3scc(-c4ccccc4C)c3c2)cc1` [Cpd 2, (3S)-3-[4-[[3-(2-Methylphenyl)benzo[b]thiophen-5-yl]methoxy]phenyl]hex-4-ynoic acid], the “Percent Lowering of Glucose (AUC compound vs. AUC Vehicle)” value stood at 72%.
On the same count and under the same terms, the result for `CC#C[C@@H](CC(=O)O)c1ccc(OCc2ccc3scc(-c4ccc(OCCOC)cc4C)c3c2)cc1` [Cpd 16, (3S)-3-(4-((3-(4-(2-Methoxyethoxy)-2-methylphenyl)benzo[b]thiophen-5-yl)methoxy)phenyl)hex-4-ynoic acid] reads 76%.

Source of the values: patent US10131648B2, “Substituted benzothiophenyl derivatives as GPR40 agonists for the treatment of type II diabetes” (Janssen Pharmaceutica NV, priority 2014, dated 2018).
